In assay [1] the target is T1, 5-HT2A receptor (Homo sapiens (Human), UniProt P28223). The assay can be described thus: 5-HT2A functional assay, IP1 (IPOne). The class given is cell-based. The protocol:
(§1) After incubation, cells were lysed and fluorescence acceptor and donor were added. FRET was measured after 60 min at room temperature using a microplate reader (Envision, Perkin Elmer). TRUPATH assays followed a similar workflow, except that different reagents were used, and LiCl was not included in the samples; the protocol was based on the report by Olsen, R. H. J. et al., cited above.

Assay [2] concerns the target T2, human 5-HT2B receptor (Homo sapiens (Human), UniProt P41595). The assay can be described thus: 5-HT2B functional assay, IP1 (IPOne). The class given is cell-based. The settings on record: IP1 assay. As to the method: (§2) 5-HT2A,2B,2C receptor-mediated Gq activation—canonical signaling pathways—[phosphoinositide hydrolysis leading to the production of inositol phosphate 1 (IP1, IPOne, Cisbio assay) or direct G-protein activation using TRUPATH technology]were measured as previously described (Porter, R. H. P., Benwell, K. R., Lamb, H., Malcolm, C. S., Allen, N. F., Revell, D. F., Adams, D. R. and Sheardown, M. J., 1999, Functional characterization of agonists at recombinant human 5-HT2a, 5HT2b and 5-HT2c receptors in CHO-K1 cells, Brit J Pharmacol 128, 13; Olsen, R. H. J., DiBerto, J. F., English, J. G. et al. TRUPATH, an open-source biosensor platform for interrogating the GPCR transducerome. […] Briefly, for the IPOne assay, for 5-HT2ARs, CHO-K1 or HEK-293 cells were incubated with test articles and 5-HT (positive control) in stimulation buffer containing LiCl. After incubation, cells were lysed and fluorescence acceptor and donor were added. FRET was measured after 60 min at room temperature using a microplate reader (Envision, Perkin Elmer). TRUPATH assays followed a similar workflow, except that different reagents were used, and LiCl was not included in the samples; the protocol was based on the report by Olsen, R. H. J. et al., cited above.

Assay [3] concerns the target T3, 5-HT2C receptor (Homo sapiens (Human), UniProt P28335). The assay can be described thus: 5-HT2C radioligand competition binding ([3H]mesulergine or [3H]LSD). Background: In a radioligand displacement assay an active substance lowers the binding of a labelled ligand.
For assay [4], the target named is T1, 5-HT2A receptor. The assay can be described thus: 5-HT2A radioligand competition binding ([3H]LSD or [3H]ketanserin).
For assay [5], the system named is mice. The assay can be described thus: Head-twitch response (HTR) screening in mice. The class given is in vivo, mouse. The protocol:
Protocols were followed according to Canal C E, Morgan D. Head-twitch response in rodents induced by the hallucinogen 2,5-dimethoxy-4-iodoamphetamine: a comprehensive history, a re-evaluation of mechanisms, and its utility as a model. […] Mice were housed in standard laboratory cages with ad libitum access to food and water and were acclimated to the vivarium for at least one week prior to testing in a procedure room. In a typical experiment, mice were injected 3 mg/kg of test article subcutaneously. Mice were placed immediately thereafter in a clear, polycarbonate box (46×20×20 cm), and HTRs were counted at various time points after administration using hand-held tally counters. In a separate experiment, plasma and brain samples were collected at 15 and 160 minutes after administration of test compounds to measure plasma and brain concentrations. Quantification was performed using LC-MS/MS method (LLOQ, 9 nM).

The target of assay [6] is T3, 5-HT2C receptor. The assay can be described thus: 5-HT2C functional assay, TRUPATH (BRET). The class given is cell-based. As to the method:
as §2
(In general: BRET reads energy transfer from a luciferase to a nearby fluorophore.)

For assay [7], the target named is T2, human 5-HT2B receptor. The assay can be described thus: 5-HT2B radioligand competition binding ([3H]LSD). The following applies: read-out: 5-HT2B, Ki; radioligand [3H]LSD.
Assay [8] deals with T1, 5-HT2A receptor. The assay can be described thus: 5-HT2A functional assay, TRUPATH (BRET). The class given is cell-based. The protocol: as §1

Where “and” joins values, the source holds several entries; their conditions need not be identical. Identical values can stand only once. Like-named read-outs stand apart in the source and are kept apart here. Marks after values point to notes of the source that are not given here. A value given as a limit tells only on which side of the number the result lay.

T3 sequence (P28335 whole entry, looked up): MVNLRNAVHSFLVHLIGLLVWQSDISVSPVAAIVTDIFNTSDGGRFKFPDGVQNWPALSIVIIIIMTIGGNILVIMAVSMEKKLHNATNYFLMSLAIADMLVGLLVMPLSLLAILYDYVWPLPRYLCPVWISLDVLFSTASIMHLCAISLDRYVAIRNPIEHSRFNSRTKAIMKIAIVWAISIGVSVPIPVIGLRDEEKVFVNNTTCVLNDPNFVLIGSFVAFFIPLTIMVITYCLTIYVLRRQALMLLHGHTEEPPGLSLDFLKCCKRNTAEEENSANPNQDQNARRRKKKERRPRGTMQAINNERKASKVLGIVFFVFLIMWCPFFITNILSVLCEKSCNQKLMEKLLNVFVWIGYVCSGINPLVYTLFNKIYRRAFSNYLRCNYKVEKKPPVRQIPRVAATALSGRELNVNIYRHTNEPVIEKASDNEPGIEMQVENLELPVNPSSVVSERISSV
T2 sequence (P41595 whole entry, looked up): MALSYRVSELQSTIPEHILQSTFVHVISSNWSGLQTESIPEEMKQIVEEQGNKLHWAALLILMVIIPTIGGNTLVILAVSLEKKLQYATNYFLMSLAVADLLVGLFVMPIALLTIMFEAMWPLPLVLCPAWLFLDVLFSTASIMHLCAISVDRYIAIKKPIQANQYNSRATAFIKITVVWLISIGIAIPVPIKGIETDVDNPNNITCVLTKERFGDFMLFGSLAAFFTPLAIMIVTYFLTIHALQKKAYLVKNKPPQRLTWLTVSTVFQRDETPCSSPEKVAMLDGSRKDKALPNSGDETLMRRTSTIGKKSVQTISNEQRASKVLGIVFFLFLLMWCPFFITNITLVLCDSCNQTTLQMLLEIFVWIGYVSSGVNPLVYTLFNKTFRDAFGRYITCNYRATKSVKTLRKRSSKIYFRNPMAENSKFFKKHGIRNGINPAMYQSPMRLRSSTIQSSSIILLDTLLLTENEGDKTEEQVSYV

A word on the EC50: it is the midpoint of the concentration-response curve. By Emax is commonly meant the maximal effect, on the per cent scale that the assay sets. The term Ki denotes a dissociation constant, usually derived from enzyme kinetics or from competition with a known ligand. Turning to `COc1cc(SC(F)(F)F)c(OC)cc1CCNCC1CC1` [Compound V-1, N-(cyclopropylmethyl)-2-(2,5-dimethoxy-4-((trifluoromethyl)thio)phenyl)ethan-1-amine], in assay [1], the “5-HT2AR agonist activity (in words)” value is on record as “potent 5-HT2AR agonist”. In addition, the EC50 in assay [1] (5-HT2A EC50, IP1 assay) was 35 nM and 35.7 nM; in assay [2] (read-out: 5-HT2B EC50) it was over 1000 nM; in assay [6] it was 46 nM; in assay [8], 28 nM. Moreover, the Emax in assay [1] (IP1 assay, relative to 5-HT) is 31%; in assay [2] (constrained to 100%), 100%; in assay [6] (relative to 5-HT), 92%; in assay [8] (TRUPATH, relative to 5-HT) it was 75%. Also, the Ki was 74.9 nM in assay [3]; 0.98 nM in assay [3] (read-out: 5-HT2C, Ki, [3H]LSD, high-affinity active state); 10 nM in assay [4] (read-out: 5-HT2A, Ki, radioligand [3H]LSD); 10 nM in assay [4] (read-out: 5-HT2AR affinity (Ki)); 79 nM in assay [7]. The “HTR (in words)” value in assay [5] (3 mg/kg) is listed as “elicited an HTR to a much lower extent than DOI”. Further, the “HTR 15-25 min” value in assay [5] (calculated using 0-30 min) is reported as 3 ####. Moreover, in assay [5] (mice, 3 mg/kg s.c.), the “HTR 160-170 min” value was 4.42.

The values above are taken from US20250236589A1, “THERAPEUTIC PHENETHYLAMINE COMPOSITIONS AND METHODS OF USE” (Cybin IRL Limited, priority 2022, published 2025).
